The results in this text go back to patent US20130123367A1, “VINYLOGOUS CHALCONE DERIVATIVES AND THEIR MEDICAL USE” (MEDIZINISCHE UNIVERSITAT WIEN, priority 2010, published 2013).

Broadly, the IC50 is the concentration needed to halve the response being measured. Read a low IC50 as inhibition by little substance.

Molecules are shown by their SMILES.

For data set [1], the system named is colon cancer cell line SW480. The data set can be described thus: Cell proliferation assay using crystal violet, SW480. It counts as cell-based. Particulars: Homo sapiens, n = 3, 24 h incubation. The method, then: (§1) For quantification, cells are treated with crystal violet, a dye that stains proteins. After washing away of excess dye, the remaining crystal violet is dissolved in a sodium citrate solution. The solution is analyzed photometrically at 590 nm. The optical density of this solution depends on the concentration of crystal violet and therefore on the amount of cells. […] To reduce effects of evaporation, only the inner 60 wells of 96-well plates (coated with 0.1% gelatine solution for studies with HUVEC) were used for experiments.
(§2) Cells were seeded at a density of 5 000 cells per well in 100 μl growth medium (HUVEC) or 20 000 (HCT116), 15 000 (SW480 and 518A2) or 10 000 (HT29) cells per well in 200 μl growth medium in 55 wells per plate. 5 wells were filled with medium only. Additionally, a 96-well plate with cells in 12 wells and medium in 6 wells was prepared as T0-plate. The next day, additional 98 μl of growth medium were added in every well (only HUVEC).
(§3) Cells were treated with 2 μl of the working solution 24 h after seeding. Final compound concentrations in the well were 10 μM for the first round of screening. The final DMSO concentration was 0.5%. […] After finishing the addition of compounds, the T0-plate was stained with crystal violet for giving the cell density at time point zero. Before staining, the growth medium was poured away. Wells were filled with 50 μl crystal violet solution for 10 min. Then the staining solution was washed away with water. Since crystal violet is environmentally hazardous the waste was collected and disposed in an appropriate manner. After air drying of the plates the crystal violet on the cells was dissolved in 100 μl of sodium citrate solution, and the absorption was measured with a plate reader at 590 nm.
Mean values were corrected with the absorption of stained medium and the corrected absorption of T0 cells. Cell growth was calculated relative to DMSO control for data comparison. IC50 values (50% inhibition of cell growth) were determined with GraphPad Prism® (Version 4.03) using nonlinear regression (sigmoidal dose-response with variable slope).
Compounds showing an inhibition of proliferation of more than 50% at a concentration of 10 μM were defined as active, and their IC50-values were determined.

The test system of data set [2] is healthy peripheral blood mononuclear cells (PBMC). Briefly: Effect on healthy PBMC (CellTiter-Blue viability). On the procedure: FIG. 8: Effect of compounds 1 and 22 according to the invention as well as the control drugs fludarabine and cyclophosphamide on the viability of healthy peripheral blood mononuclear cells (PBMC) in suspension culture after 48 h incubation. Data points represent one individual calculated in relation to the control. Viability was measured using the CellTiter Blue assay (Promega, Madison, Wis., USA), and cells incubated in solvent only were used as control.
For quantification, cells were treated with resazurin (7-hydroxy-3H-phenoxazin-3-one 10-oxide) as indicator of cell viability. The method is based on the finding that living cells are able to reduce the non-fluorescent blue dye into the pink colored and highly red fluorescent resorufine. After adding the substrate the cells are incubated for 2 to 4 hours. Then, the solution is analyzed at 560 nm Ex/590 nm Em on a fluorometer. Appropriate cell density for seeding and duration of treatment with the substrate were determined in preliminary experiments.
First, cells were seeded in 96 well plates and then growth medium was added to each well to get a final volume of 80 μl. Compounds to be tested were diluted with medium from a 10 mM stock solution in DMSO to get different concentrations, and 20 μl of these solutions were added to the wells. The final DMSO concentration was 0.5%. All treatments and controls were performed in at least triplicates. Cells were incubated at 37° C. and 5% CO2 for 48 h. Then, 20 μl substrate solution was added to the wells, plates were incubated for 3 hours and analyzed.
The impact of the compounds according to the invention on healthy cells was assessed using peripheral blood mononuclear cells (PBMC). Cell viability was tested using the CellTiter-Blue Cell Viability Assay (Promega, Madison, Wis., USA) as described in Example 7.

Another data set deals with HCT116 cell line. The data set can be described thus: Cell proliferation assay using crystal violet, HCT116. To be noted: Homo sapiens, HCT-116, n = 3, 24 h incubation. It counts as cell-based. The method, then:
as §1, §2, §3
Mean values were corrected with the absorption of stained medium and the corrected absorption of T0 cells. Cell growth was calculated relative to DMSO control for data comparison.

Data set [3] deals with primary chronic lymphocytic leukemia (CLL) cells. Briefly: In vitro drug test in primary CLL cells (CellTiter-Blue viability). The data set is classed as cell-based. To be noted: 48 h incubation; mean of 15 patients; FIG. 6. An excerpt:
FIG. 6: […] Data points represent the arithmetic mean of 15 patients calculated in relation to the control. […] The final DMSO concentration was 0.5%.
In general terms: Resazurin is reduced to fluorescent resorufin, in cell work by metabolically active cells.

Data set [4] concerns SU-DHL-6 or SU-DHL-9 NHL cells. The data set can be described thus: Annexin V-FITC / propidium iodide staining, early apoptosis in NHL cells. The data set is classed as cell-based. To be noted: 48 h incubation; FIG. 2. On the procedure:
FIG. 2. Changes in early apoptosis in SU-DHL-6 or SU-DHL-9 NHL cells after 48 h incubation with compounds 1 and 22, respectively. Effect of compound 1 in a) SU-DHL-6 and b) SU-DHL-9, and effect of compound 22 in c) SU-DHL-6 and d) SU-DHL-9. Apoptosis was detected using propidium iodide/Annexin V FACS staining (Bender MedSystems). Viability was detected using the EZ4U viability kit (Biomedica).
Annexin V binds to phosphatidylserine which is exposed at the cell surface during execution of apoptosis. […] The final DMSO concentration was 0.5%. All treatments and controls were performed twice. […] Then, growth medium was removed by centrifugation, the supernatant discarded and 200 μl of an Annexin V solution were added. After 10 minutes in the dark, cells were washed once with Annexin buffer and the solution removed by centrifugation. The supernatant was discarded again and cells were suspended in 200 μl of a propidium iodide solution. Cells were measured by flow cytometry with a total of 10 000 events. Data were analyzed with CellQuest Pro™.

As for `COc1ccccc1/C=C/C=C/C(=O)c1cc(OC)c(OC)c(OC)c1` [Compound 1, 5-(2-Methoxyphenyl)-1-(3′,4′,5′-trimethoxyphenyl)-2,4-pentadiene-1-one], the IC50 in data set [1] was 520 nM; with HCT116 cell line, 230 nM. For the same compound, the “viability of healthy PBMC in suspension culture (toxicity)” value in data set [2] was “less toxic”. For the same compound, the “viability of primary CLL cells in suspension culture” value in data set [3] was “effective in CLL cells at lower concentrations than the standard therapeutic drugs fludarabine and cyclophosphamide”. For the same compound, the “early apoptosis (propidium iodide/Annexin V FACS staining)” value in data set [4] is “induce early apoptosis”.

The compound `CCOc1ccccc1C(=O)/C=C/c1ccc2ccccc2c1` [Compound 22, 3-(2-Naphthyl)-1-(2′-ethoxyphenyl)-2-propene-1-one] returned an IC50 in data set [1] of 30 nM. In addition, the “viability of healthy PBMC in suspension culture (toxicity)” value in data set [2] is on record as “less toxic”. Besides, the “viability of primary CLL cells in suspension culture” value in data set [3] was “effective in CLL cells at lower concentrations than the standard therapeutic drugs fludarabine and cyclophosphamide”. The “early apoptosis (propidium iodide/Annexin V FACS staining)” value in data set [4] was “induce early apoptosis”.
